Measurements reported in PubChem BioAssay (NCI).
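Step 1: Grow cells in 96-well plates. Step 2: Expose to compound for 48 hours at 5 concentrations. Step 3: Interpolate endpoints linearly; if unreached, use highest concentration. TGI denotes the concentration required for complete inhibition of growth.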

Columns and labels:
Experiment in all cases: NCI anticancer screen, dose series, 48 h
786-0 renal = system: 786-0 renal
A498 renal = system: A498 renal
A549 NSCLC = system: A549 NSCLC
ACHN renal = system: ACHN renal
CAKI-1 renal = system: CAKI-1 renal
CCRF-CEM leukemia = system: CCRF-CEM leukemia
COLO 205 colon = system: COLO 205 colon
DU-145 prostate = system: DU-145 prostate
EKVX NSCLC = system: EKVX NSCLC
HCC-2998 colon = system: HCC-2998 colon
HCT-116 colon = system: HCT-116 colon
HCT-15 colon = system: HCT-15 colon
HL-60(TB) leukemia = system: HL-60(TB) leukemia
HOP-62 NSCLC = system: HOP-62 NSCLC
HOP-92 NSCLC = system: HOP-92 NSCLC
HS 578T breast = system: HS 578T breast
HT29 colon = system: HT29 colon
IGROV1 ovarian = system: IGROV1 ovarian
K-562 leukemia = system: K-562 leukemia
KM12 colon = system: KM12 colon
LOX IMVI melanoma = system: LOX IMVI melanoma
M14 melanoma = system: M14 melanoma
MALME-3M melanoma = system: MALME-3M melanoma
MCF7 breast = system: MCF7 breast
MDA-MB-435 = system: MDA-MB-435
MDA-N = system: MDA-N
MOLT-4 leukemia = system: MOLT-4 leukemia
NCI-H226 lung = system: NCI-H226 lung
NCI-H23 lung = system: NCI-H23 lung
NCI-H460 lung = system: NCI-H460 lung
NCI-H522 lung = system: NCI-H522 lung
NCI/ADR-RES ovarian = system: NCI/ADR-RES ovarian
OVCAR-3 ovarian = system: OVCAR-3 ovarian
OVCAR-4 ovarian = system: OVCAR-4 ovarian
OVCAR-5 ovarian = system: OVCAR-5 ovarian
PC-3 prostate = system: PC-3 prostate
RPMI-8226 leukemia = system: RPMI-8226 leukemia
RXF 393 renal = system: RXF 393 renal
SF-268 CNS = system: SF-268 CNS
SF-295 CNS = system: SF-295 CNS
SF-539 CNS = system: SF-539 CNS
SK-MEL-2 melanoma = system: SK-MEL-2 melanoma
SK-MEL-28 melanoma = system: SK-MEL-28 melanoma
SK-MEL-5 melanoma = system: SK-MEL-5 melanoma
SK-OV-3 ovarian = system: SK-OV-3 ovarian
SN12C renal = system: SN12C renal
SNB-19 CNS = system: SNB-19 CNS
SR leukemia = system: SR leukemia
SW-620 colon = system: SW-620 colon
T-47D breast = system: T-47D breast
TK-10 renal = system: TK-10 renal
U251 CNS = system: U251 CNS
UACC-257 melanoma = system: UACC-257 melanoma
UACC-62 melanoma = system: UACC-62 melanoma
UO-31 renal = system: UO-31 renal
BT-549 breast = system: BT-549 breast
MDA-MB-231 breast = system: MDA-MB-231 breast
OVCAR-8 ovarian = system: OVCAR-8 ovarian
SNB-75 CNS = system: SNB-75 CNS

Measured: TGI

NC(=O)c1cc(N(CCO)CCO)c([N+](=O)[O-])cc1[N+](=O)[O-]
not listed: BT-549 breast | MDA-MB-231 breast | OVCAR-8 ovarian | SNB-75 CNS
> 100 µM: all other assays above

CN1CN(c2ccccc2)C2(CCN(CCCCCCF)CC2)C1=O
94.2 µM: UO-31 renal
47.3 µM: COLO 205 colon
40.3 µM: NCI/ADR-RES ovarian
93.3 µM: HOP-62 NSCLC
60.6 µM: MCF7 breast
92.4 µM: SF-539 CNS
not listed: A498 renal | HCC-2998 colon | HOP-92 NSCLC | HS 578T breast | NCI-H460 lung | OVCAR-4 ovarian | SK-MEL-2 melanoma
> 100 µM: all other assays above

O=S(=O)(c1ccc(-c2nnc(-c3ccc(F)cc3)o2)cc1)c1ccc(-c2nnc(-c3ccc(F)cc3)o2)cc1
46.8 µM: ACHN renal
26 µM: SNB-75 CNS
77.7 µM: RXF 393 renal
90.3 µM: SK-OV-3 ovarian
58.6 µM: A498 renal
not listed: HS 578T breast | SK-MEL-28 melanoma | SR leukemia | TK-10 renal | MDA-MB-231 breast
> 100 µM: all other assays above

O=[N+]([O-])c1cccc(-c2nc(-c3ccccc3)c(-c3ccccc3)[nH]2)c1
not listed: ACHN renal | HCT-15 colon | HOP-92 NSCLC | HT29 colon | KM12 colon | OVCAR-4 ovarian | BT-549 breast | SNB-75 CNS
> 100 µM: all other assays above
